“Also recorded” adds a separate entry of the source. Like-named read-outs stand apart in the source and are kept apart here.
[1] = 450 mg BID (74 patients), All Grades
[2] = 450 mg BID (74 patients), Grade ≥3

SMILES: Cc1ccc2c(Nc3cccc(Cl)c3F)nccc2c1NC(=O)c1csc2c(N)ncnc12 [Belvarafenib]
- ADR leading to drug Interrupted [1]: 17 (23.0) n (%)
- ADR leading to drug reduced [1]: 12 (16.2) n (%)
- ADR leading to study drug discontinuation [1]: 3 (4.1) n (%)
- Abdominal pain [1]: 10 (13.5) n (%)
- Any ADRs [1]: 62 (83.8) n (%)
- Any TEAEs [1]: 72 (97.3) n (%)
- Constipation [1]: 15 (20.3) n (%)
- Decreased appetite [1]: 15 (20.3) n (%)
- Dermatitis acneiform [1]: 34 (46.0) n (%)
- Dyspepsia [1]: 10 (13.5) n (%)
- Fatigue [1]: 12 (16.2) n (%)
- Nausea [1]: 12 (16.2) n (%)
- Pruritus [1]: 18 (24.3) n (%)
- Pyrexia [1]: 15 (20.3) n (%)
- Rash [1]: 16 (21.6) n (%)
- TEAE leading to drug Interrupted [1]: 21 (28.4) n (%)
- TEAE leading to drug reduced [1]: 15 (20.3) n (%)
- TEAE leading to study drug discontinuation [1]: 3 (4.1) n (%)
- Vomiting [1]: 9 (12.2) n (%)
- ADR leading to drug Interrupted [2]: 7 (9.5) n (%)
- ADR leading to drug reduced [2]: 3 (4.1) n (%)
- ADR leading to study drug discontinuation [2]: 3 (4.1) n (%)
- Abdominal pain [2]: 0 n (%)
- Any ADRs [2]: 16 (21.6) n (%)
- Any TEAEs [2]: 30 (40.5) n (%)
- Constipation [2]: 0 n (%)
- Decreased appetite [2]: 1 (1.4) n (%)
- Dermatitis acneiform [2]: 4 (5.4) n (%)
- Dyspepsia [2]: 0 n (%)
- Fatigue [2]: 1 (1.4) n (%)
- Nausea [2]: 1 (1.4) n (%)
- Pruritus [2]: 0 n (%)
- Pyrexia [2]: 0 n (%)
- Rash [2]: 2 (2.7) n (%)
- TEAE leading to drug Interrupted [2]: 10 (13.5) n (%)
- TEAE leading to drug reduced [2]: 5 (6.8) n (%)
- TEAE leading to study drug discontinuation [2]: 3 (4.1) n (%)
- Vomiting [2]: 2 (2.7) n (%)
- MTD (maximum tolerated dose) (BID, oral, dose-escalation phase): 650 mg
- tolerability (RD of 450 mg BID): generally well-tolerated
- ADR leading to drug Interrupted (Total (n=135), All Grades): 25 (18.5) n (%)
- ADR leading to drug reduced (Total (n=135), All Grades): 21 (15.6) n (%)
- ADR leading to study drug discontinuation (Total (n=135), All Grades): 9 (6.7) n (%)
- Abdominal pain (Total (n=135), All Grades): 14 (10.4) n (%)
- Any ADRs (Total (n=135), All Grades): 113 (83.7) n (%)
- Any TEAEs (Total (n=135), All Grades): 127 (94.1) n (%)
- Constipation (Total (n=135), All Grades): 18 (13.3) n (%)
- Decreased appetite (Total (n=135), All Grades): 25 (18.5) n (%)
- Dermatitis acneiform (Total (n=135), All Grades): 50 (37.0) n (%)
- Dyspepsia (Total (n=135), All Grades): 15 (11.1) n (%)
- Fatigue (Total (n=135), All Grades): 20 (14.8) n (%)
- Nausea (Total (n=135), All Grades): 21 (15.6) n (%)
- Pruritus (Total (n=135), All Grades): 30 (22.2) n (%)
- Pyrexia (Total (n=135), All Grades): 24 (17.8) n (%)
- Rash (Total (n=135), All Grades): 32 (23.7) n (%)
- TEAE leading to drug Interrupted (Total (n=135), All Grades): 29 (21.5) n (%)
- TEAE leading to drug reduced (Total (n=135), All Grades): 25 (18.5) n (%)
- TEAE leading to study drug discontinuation (Total (n=135), All Grades): 12 (8.9) n (%)
- Vomiting (Total (n=135), All Grades): 18 (13.3) n (%)
- ADR leading to drug Interrupted (Total (n=135), Grade ≥3): 9 (6.7) n (%)
- ADR leading to drug reduced (Total (n=135), Grade ≥3): 5 (3.7) n (%)
- ADR leading to study drug discontinuation (Total (n=135), Grade ≥3): 8 (5.9) n (%)
- Abdominal pain (Total (n=135), Grade ≥3): 0 n (%)
- Any ADRs (Total (n=135), Grade ≥3): 26 (19.3) n (%)
- Any TEAEs (Total (n=135), Grade ≥3): 45 (33.3) n (%)
- Constipation (Total (n=135), Grade ≥3): 0 n (%)
- Decreased appetite (Total (n=135), Grade ≥3): 1 (0.7) n (%)
- Dermatitis acneiform (Total (n=135), Grade ≥3): 4 (3.0) n (%)
- Dyspepsia (Total (n=135), Grade ≥3): 2 (1.5) n (%)
- Fatigue (Total (n=135), Grade ≥3): 1 (0.7) n (%)
- Nausea (Total (n=135), Grade ≥3): 1 (0.7) n (%)
- Pruritus (Total (n=135), Grade ≥3): 0 n (%)
- Pyrexia (Total (n=135), Grade ≥3): 0 n (%)
- Rash (Total (n=135), Grade ≥3): 4 (3.0) n (%)
- TEAE leading to drug Interrupted (Total (n=135), Grade ≥3): 13 (9.6) n (%)
- TEAE leading to drug reduced (Total (n=135), Grade ≥3): 7 (5.2) n (%)
- TEAE leading to study drug discontinuation (Total (n=135), Grade ≥3): 8 (5.9) n (%)
- Vomiting (Total (n=135), Grade ≥3): 2 (1.5) n (%)
- cases of squamous cell carcinoma (SCC) (dose-escalation and dose-expansion (n=135)): No cases of squamous cell carcinoma (SCC) were reported; also recorded: no cases of SCC were observed
- patients who experienced DLTs (dose-escalation, cycle 1, 50 evaluable patients): Four of the 50 patients experienced DLTs
- Serious TEAEs related to belvarafenib (n=135, 12 patients): 8.9%
- Serious TEAEs (n=135, 30 patients): 22.2%
- RD (recommended dose) for single-agent belvarafenib (twice per day (BID)): 450 mg

From patent US20230233567A1, “BELVARAFENIB FOR USE IN CANCER TREATMENT” (Hanmi Pharm. Co., Ltd., priority 2020, published 2023)
